Some test systems named below: ACHN renal; EKVX NSCLC; HCC-2998 colon; HL-60(TB) leukemia; KM12 colon; NCI-H226 lung; SF-295 CNS; SK-MEL-28 melanoma; OVCAR-5 ovarian.
Holding throughout (experiment): DTP human tumour cell line panel, 48 h

The structures appear in SMILES notation.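 Protocol summary: plate cells (96-well), add compound at 5 concentrations, incubate 48 h, interpolate endpoints linearly. TGI: total growth inhibition.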

Usually TGI stands for the concentration giving total growth inhibition. A low value points to more potent growth arrest. Consider `O=NN(CCCl)C(=O)N[C@H]1CCCC[C@@H]1Cl`, for which the TGI in the test with ACHN renal is above 100 µM; in the test on EKVX NSCLC, above 100 µM; in the test on HCC-2998 colon it was above 100 µM; in the test on HL-60(TB) leukemia, 42.7 µM; with KM12 colon it was above 100 µM; in the test with NCI-H226 lung, above 100 µM. The total growth inhibition concentration (TGI) with SF-295 CNS and in the test with SK-MEL-28 melanoma was above 100 µM throughout.

As for `COC1CC(OC)C(O)C(CO)O1` (centres undefined), the TGI in the test with ACHN renal, in the test with EKVX NSCLC, in the test on HCC-2998 colon, with HL-60(TB) leukemia, with KM12 colon and in the test on OVCAR-5 ovarian was above 100 µM throughout. The concentration for total growth inhibition (TGI) in the test with SF-295 CNS and in the test with SK-MEL-28 melanoma was above 100 µM each time.

For the molecule `Cc1ccc(N2C(=O)C(Cl)=C(Cl)C2=O)cc1`, the TGI is 34.1 µM in the test on ACHN renal; 39.2 µM in the test on EKVX NSCLC; above 100 µM in the test with HCC-2998 colon; 45.2 µM in the test on KM12 colon; above 100 µM in the test on NCI-H226 lung; 35.9 µM with OVCAR-5 ovarian. In addition, the TGI in the test with SF-295 CNS was above 100 µM; in the test on SK-MEL-28 melanoma, 31.5 µM.

Take `CCOC(=O)c1cc(OC(=O)CC)c2c(OC)ccc(OC)c2c1`: the TGI in the test on ACHN renal, in the test with EKVX NSCLC, with HCC-2998 colon, in the test on KM12 colon, in the test on OVCAR-5 ovarian and in the test on SK-MEL-28 melanoma was above 100 µM each time.

For the molecule `C=C[C@H]1C=Cc2c(OC)cccc2[C@@H]1COP1(=S)NC(C)C(c2ccccc2)O1` (some centres undefined), the TGI was above 100 µM with EKVX NSCLC; above 100 µM in the test with HCC-2998 colon; 50.2 µM in the test on HL-60(TB) leukemia; above 100 µM in the test on KM12 colon; above 100 µM with NCI-H226 lung; above 100 µM in the test on SF-295 CNS. In the test with SK-MEL-28 melanoma, this molecule displayed a concentration for total growth inhibition (TGI) above 100 µM.

In the case of `CC(C)c1ccc2nc3ccc(C(=O)NCCN4CCN(c5ccccc5)CC4)cn3c(=O)c2c1`, the total growth inhibition concentration (TGI) with EKVX NSCLC was above 100 µM; with HCC-2998 colon, above 100 µM; in the test with KM12 colon, above 100 µM; in the test on NCI-H226 lung, above 100 µM; in the test with OVCAR-5 ovarian, above 100 µM; in the test on SF-295 CNS, 4.91 µM. This molecule also displayed a TGI with SK-MEL-28 melanoma above 100 µM.

For `CCOC(=O)C(C(=O)OCC)=c1sc(=C(C(=O)OCC)C(=O)OCC)s1`, the total growth inhibition concentration (TGI) in the test with ACHN renal, in the test on EKVX NSCLC, in the test with HCC-2998 colon, with HL-60(TB) leukemia, with KM12 colon and in the test with OVCAR-5 ovarian was above 100 µM each time. The TGI in the test with SF-295 CNS and in the test with SK-MEL-28 melanoma was above 100 µM throughout.

Regarding `COC(=O)[C@@]12C=CC(=O)[C@H]3C[C@@H](C(C(C)C)C1)[C@]32OC` (some centres undefined), the total growth inhibition concentration (TGI) in the test with ACHN renal, in the test on EKVX NSCLC, in the test with HCC-2998 colon, in the test with HL-60(TB) leukemia, with KM12 colon and in the test on OVCAR-5 ovarian was above 100 µM throughout. For the same molecule, the total growth inhibition concentration (TGI) with SF-295 CNS and in the test with SK-MEL-28 melanoma was above 100 µM each time.

On to `COc1ccc(C2C3=C(COC3=O)Oc3cc4c(cc32)OCO4)cc1` (centres undefined), for which the total growth inhibition concentration (TGI) is above 100 µM in the test with ACHN renal; above 100 µM with EKVX NSCLC; 25 µM in the test on HL-60(TB) leukemia; 69.6 µM in the test with SF-295 CNS; above 100 µM in the test on SK-MEL-28 melanoma.

For `Cn1nc2ccccc2cc1=O`, the TGI in the test on ACHN renal, in the test on EKVX NSCLC, in the test with HCC-2998 colon, with KM12 colon, with NCI-H226 lung and in the test on OVCAR-5 ovarian was above 100 µM in each case. The total growth inhibition concentration (TGI) with SF-295 CNS and in the test on SK-MEL-28 melanoma was above 100 µM throughout.

On to `c1ccc2c(CNCCCCCCCCCCCCNCc3cccc4ccccc34)cccc2c1`, for which the total growth inhibition concentration (TGI) is 3.7 µM in the test on ACHN renal; 9.59 µM in the test with EKVX NSCLC; 3.12 µM with HL-60(TB) leukemia; 2.99 µM with KM12 colon; 4.57 µM in the test with NCI-H226 lung; 2.94 µM in the test with OVCAR-5 ovarian. Also, the total growth inhibition concentration (TGI) stood at 58.2 µM in the test with SF-295 CNS and 3.38 µM in the test with SK-MEL-28 melanoma.

As for `c1ccc2c(c1)[nH]c1c2ncc2[nH]c3ccccc3c21`, the TGI with ACHN renal came to 16.3 µM; in the test on EKVX NSCLC, 33.1 µM; in the test on HCC-2998 colon, 7.07 µM; in the test with KM12 colon, 10.3 µM; with NCI-H226 lung, 49.1 µM; with OVCAR-5 ovarian, 22.9 µM. For the same molecule, the TGI stood at 11.4 µM in the test on SF-295 CNS and 27.7 µM in the test with SK-MEL-28 melanoma.

As to `O=C(C=Nc1ccccc1C(=O)[O-])c1cccs1.O=C(C=Nc1ccccc1C(=O)[O-])c1cccs1.[Zn+2]`, the TGI in the test on ACHN renal was above 100 µM; in the test on HCC-2998 colon, above 10 µM; in the test on HL-60(TB) leukemia, above 100 µM; with KM12 colon, above 100 µM; in the test with OVCAR-5 ovarian, 71.9 µM; with SF-295 CNS, 42.1 µM. Moreover, in the test on SK-MEL-28 melanoma, the concentration for total growth inhibition (TGI) was above 100 µM.

For `FC(F)(F)c1nc(-c2ccccc2)oc1Sc1oc(-c2ccccc2)nc1C(F)(F)F`, the TGI in the test on ACHN renal, in the test with EKVX NSCLC, with HCC-2998 colon, in the test on HL-60(TB) leukemia, in the test with KM12 colon and in the test with NCI-H226 lung was above 100 µM in each case. Also, the TGI in the test on OVCAR-5 ovarian and in the test with SF-295 CNS was above 100 µM throughout.
